This is an account of results in PubChem BioAssay (NCI).

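Five compound concentrations were applied to cells in 96-well plates for 48 hours; endpoints were derived by simple linear interpolation of the resulting dose-response curve. Abbreviation: GI50, concentration required for 50% inhibition of growth. Definition used: TGI = concentration required for complete inhibition of growth.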

What all share (test): NCI anticancer screen, dose series, 48 h
Assay [1] relates to KM12 colon.
In assay [2] the test system is DLD-1 colon.
Assay [3] has as its system DMS 114 small cell lung.
The subject of assay [4] is OVCAR-3 ovarian.
Assay [5] concerns T-47D breast.
Assay [6] relates to NCI/ADR-RES ovarian.
Assay [7] has as its system HS 578T breast.
For assay [8], the system named is MCF7 breast.
Assay [9] deals with HCT-15 colon.
The test system of assay [10] is DMS 273 small cell lung.
The subject of assay [11] is LXFL 529 NSCLC.
Assay [12] relates to M19-MEL melanoma.

`CC1(C)N=C(N)N=C(N)N1c1ccc(CCCCc2ccc(S(=O)(=O)F)cc2Cl)c(Cl)c1`: the TGI in assay [1] is 9.77 µM; in assay [2], 118 µM; in [3], 16.4 µM; in assay [4] it was 87 µM; in assay [5], 34.8 µM; in [6] it was 347 µM. The TGI in assay [7] was above 500 µM; in assay [8], 28.7 µM; in assay [9] it was 193 µM.

Take `O=C(N/N=C/c1cccc(O)c1O)N/N=C/c1cccc(O)c1O`: the TGI in [1] was above 100 µM; in assay [3], above 100 µM; in assay [4], 8.8 µM; in [10] it was 65.2 µM; in assay [11] it was above 100 µM; in assay [12], above 100 µM. In assay [9], this compound gave a TGI above 100 µM.

As for `O=C1NC(=O)C2C(=O)NC(=O)C1C2(c1ccccc1)c1ccc(Cl)cc1` (stereo not drawn), the TGI in assay [1], in assay [2], in [4], in [10], in [11] and in assay [12] was above 100 µM in each case. In addition, the TGI in [9] is above 100 µM.

With `CCOC(=O)CCCO`, the TGI in [1], in [2], in assay [4], in assay [11] and in [9] was above 100 µM in each case.

As to `NC1(CCCCCCCCCCC(=O)O)CNCCNCCNCCNC1`, the TGI in assay [1], in [2], in [3], in assay [4] and in assay [12] was above 100 µM in each case.

Consider `C[C@]12CCC(=O)C=C1CC[C@@H]1C2CC[C@]2(C)NC(=O)C(C#N)CC12` (stereo partly drawn), for which the TGI in [2], in [3], in assay [4], in [10], in assay [11] and in [12] was above 100 µM each time. In assay [9], the TGI was above 100 µM.

As for `CCCCn1/c(=N/C(=S)N(C)C)ss/c1=N\C(=S)N(C)C`, the TGI in [1], in assay [2], in [10], in assay [11], in assay [12] and in assay [9] was above 100 µM in each case.

Take `C#CC(C)(C)Oc1cc(O)c2c(=O)c3ccccc3n(C)c2c1`: the TGI in assay [3], in assay [4], in [10], in assay [11] and in [9] was above 100 µM each time.

`O=[N+]([O-])c1ccc(NSc2ccccc2)cc1`: the TGI in assay [1] was above 100 µM; in assay [2] it was 64 µM; in assay [3], above 100 µM; in [4] it was above 100 µM; in assay [10] it was 33.7 µM; in assay [11], 70.9 µM. Moreover, in assay [9], the TGI is above 100 µM.

Turning to `O=C1CC[C@H]2CNC(=O)C[C@H]2C1`, the TGI in assay [1], in [2], in assay [4], in [10], in assay [11] and in assay [12] was above 100 µM in each case. Further, the TGI in [9] was above 100 µM.

With `Cc1cc(C)nc(NS(=O)(=O)c2ccc(NC(=O)c3cccc4c(=O)c5ccccc5[nH]c34)cc2)n1`, the TGI in assay [1] was 30.7 µM; in assay [2] it was 45.6 µM; in assay [3], 35.2 µM; in assay [4], 37.6 µM; in [10], 48.4 µM; in assay [11], above 100 µM. This compound yielded a TGI in assay [9] of 46.3 µM.

With `Cn1cc(C2=C(c3ccc(OC[C@@H](O)CO)cc3)C(=O)NC2=O)c2ccccc21`, the GI50 was above 25 µM in assay [1]; above 25 µM in assay [4]; above 25 µM in assay [5]; above 25 µM in assay [6]; 7.87 µM in assay [7]; above 25 µM in [8]. Also, the GI50 in assay [9] was above 25 µM. Besides, the TGI in [1], in assay [4], in assay [5], in [6], in [7] and in assay [8] was above 25 µM each time. Also, the TGI in [9] is above 25 µM.

In the case of `OCc1c(-c2cccc3ccccc23)sc(-c2cccc3ccccc23)c1CO`, the TGI in assay [1] is 26.4 µM; in assay [3], 22.8 µM; in [4], 26.5 µM; in [10], 28.5 µM; in assay [11], 27.6 µM; in [12] it was 29.4 µM. The TGI in [9] stood at 27.9 µM.

As to `O=[N+]([O-])C(=C(Sc1ccccc1)Sc1ccccc1)C(Cl)=C(Cl)Cl`, the TGI in [1] came to 7.03 µM; in [4] it was 1.31 µM; in assay [5] it was 1.14 µM; in assay [6], 1.9 µM; in [7] it was 17.6 µM; in assay [8], 1.05 µM. In addition, in assay [9], the TGI stood at 1.02 µM.

In the case of `C/C(=N\NC(N)=S)c1ccc(C)cc1C`, the TGI in assay [1], in [2], in [4], in assay [10], in [11] and in [12] was above 100 µM in each case. Further, the TGI in [9] is above 100 µM.

With `N#Cc1cnn2ccn(C3OC(COC(=O)c4ccccc4)C(OC(=O)c4ccccc4)C3OC(=O)c3ccccc3)c12` (stereo not drawn), the TGI is 21.5 µM in assay [1]; above 21.5 µM in [4]; 21.5 µM in assay [5]; above 21.5 µM in assay [6]; 21.5 µM in assay [7]; above 46.4 µM in [8]. This compound also gave a TGI in assay [9] above 21.5 µM.

Take `CC(=O)OCC1OC(n2c(=S)[nH]c(-c3ccccc3)c(C#N)c2=O)C(OC(C)=O)C(OC(C)=O)C1OC(C)=O` (stereo not drawn): the TGI in assay [1], in assay [4], in assay [5], in assay [6], in [7] and in assay [8] was above 100 µM each time. The same compound gave a TGI in assay [9] above 100 µM.

As to `COc1cc2c(cc1O)[C@H](Cc1ccc(Oc3cc(C[C@H]4c5cc(OC)c(OC)cc5CCN4C)ccc3OC)cc1)NCC2`, the TGI came to 25.7 µM in [1]; 40.5 µM in [3]; 22.4 µM in [4]; 43.2 µM in [10]; 28.2 µM in assay [11]; 49.2 µM in [12]. This compound yielded a TGI in [9] of 21.4 µM.
